Assay results taken from US11122789B2, “Termite preferred resource compositions and methods” (priority 2015, dated 2021).
Like-named read-outs stand apart in the source and are kept apart here.

Tests used:
Format in all cases: in vivo
[1] = test system: Reticulitermes flavipes; conditions: for INSECT ACTIVIIS 0-4: scale 0 death, 4 normal behaviour; for % Mortality: 0.15 % v/v on ground Sabal palm
Protocol: (§1) Bioassay tubes were loaded with 0.2 g of finely ground Sabal palm materials into microtubes. One mL of dilute active ingredient (described below) was applied to the tube and fully absorbed by the palm materials. The tubes were placed in petri dishes on a 3 mm sand base. Thirty to forty workers and soldiers from the field-collected Reticulitermes and Coptotermes colonies were introduced to the petri dishes. Termite activity was evaluated on a 0-4 scale, with 0 denoting death and 4 indicating normal behaviour. Mortality was recorded weekly for up to 9 weeks, depending on survivorship.

[2] = test system: Coptotermes formosanus; conditions: for INSECT ACTIVIIS 0-4: scale 0 death, 4 normal behaviour; for % Mortality: 0.15 % v/v on ground Sabal palm
Protocol: as §1

[3] = test system: Reticulitermes flavipes; conditions: 10 ppmai; 2 DA-A
[4] = 7.5 ppmai on ground Sabal palm, 5 DA-A
[5] = 75 ppmai on ground Sabal palm, 5 DA-A
[6] = 150 ppmai on ground Sabal palm, 5 DA-A
[7] = 300 ppmai on ground Sabal palm, 5 DA-A

## CNC(=O)c1cc(Cl)cc(C)c1NC(=O)c1cc(Br)nn1-c1ncccc1Cl [Chlorantraniliprole]
[1]; 1 ppmai, 2 DA-A
  TUNNEL LENGTH: 4 CM
  INSECT ACTIVIIS 0-4: 4 0-4
[1]; 1 ppmai, 7 DA-A
  INSECT % MORTAL: 0.8%
  INSECT ACTIVIIS 0-4: 4 0-4
[1]; 1 ppmai, 9 DA-A
  INSECT % MORTAL: 2.4%
[1]; 1 ppmai, 20 DA-A
  INSECT % MORTAL: 4.1%
  INSECT ACTIVIIS 0-4: 4 0-4
[1]; 10 ppmai, 2 DA-A
  INSECT ACTIVIIS 0-4: 3.3 0-4
[1]; 10 ppmai, 7 DA-A
  INSECT % MORTAL: 0.2%
  INSECT ACTIVIIS 0-4: 4 0-4
[1]; 10 ppmai, 9 DA-A
  INSECT % MORTAL: 0.5%
[1]; 10 ppmai, 20 DA-A
  INSECT % MORTAL: 4.92%
  INSECT ACTIVIIS 0-4: 4 0-4
[1]; 50 ppmai, 2 DA-A
  TUNNEL LENGTH: 2 CM
  INSECT ACTIVIIS 0-4: 2.3 0-4
[1]; 50 ppmai, 7 DA-A
  INSECT % MORTAL: 13%
  INSECT ACTIVIIS 0-4: 2 0-4
[1]; 50 ppmai, 9 DA-A
  INSECT % MORTAL: 94.7%
[1]; 50 ppmai, 20 DA-A
  INSECT % MORTAL: 100%
  INSECT ACTIVIIS 0-4: 0 0-4
[1]; 100 ppmai, 2 DA-A
  TUNNEL LENGTH: 1 CM
  INSECT ACTIVIIS 0-4: 1.3 0-4
[1]; 100 ppmai, 7 DA-A
  INSECT % MORTAL: 15%
  INSECT ACTIVIIS 0-4: 1 0-4
[1]; 100 ppmai, 9 DA-A
  INSECT % MORTAL: 100%
[1]; 100 ppmai, 20 DA-A
  INSECT % MORTAL: 100%
  INSECT ACTIVIIS 0-4: 0 0-4
[2]; 1 ppmai, 2 DA-A
  TUNNEL LENGTH: 4 CM
  INSECT ACTIVIIS 0-4: 3.3 0-4
[2]; 1 ppmai, 7 DA-A
  INSECT % MORTAL: 5.4%
  INSECT ACTIVIIS 0-4: 3.8 0-4
[2]; 1 ppmai, 9 DA-A
  INSECT % MORTAL: 2.3%
[2]; 1 ppmai, 20 DA-A
  INSECT % MORTAL: 93.4%
  INSECT ACTIVIIS 0-4: 0.5 0-4
[2]; 10 ppmai, 2 DA-A
  TUNNEL LENGTH: 4 CM
  INSECT ACTIVIIS 0-4: 4 0-4
[2]; 10 ppmai, 7 DA-A
  INSECT % MORTAL: 1.3%
  INSECT ACTIVIIS 0-4: 3.3 0-4
[2]; 10 ppmai, 9 DA-A
  INSECT % MORTAL: 1.5%
[2]; 10 ppmai, 20 DA-A
  INSECT % MORTAL: 91.1%
  INSECT ACTIVIIS 0-4: 0.8 0-4
[2]; 50 ppmai, 2 DA-A
  TUNNEL LENGTH: 1 CM
  INSECT ACTIVIIS 0-4: 1.5 0-4
[2]; 50 ppmai, 7 DA-A
  INSECT % MORTAL: 23.2%
  INSECT ACTIVIIS 0-4: 1 0-4
[2]; 50 ppmai, 9 DA-A
  INSECT % MORTAL: 90.8%
[2]; 50 ppmai, 20 DA-A
  INSECT % MORTAL: 100%
  INSECT ACTIVIIS 0-4: 0 0-4
[2]; 100 ppmai, 2 DA-A
  TUNNEL LENGTH: 1.5 CM
  INSECT ACTIVIIS 0-4: 1 0-4
[2]; 100 ppmai, 7 DA-A
  INSECT % MORTAL: 60.5%
  INSECT ACTIVIIS 0-4: 1 0-4
[2]; 100 ppmai, 9 DA-A
  INSECT % MORTAL: 98.3%
[2]; 100 ppmai, 20 DA-A
  INSECT % MORTAL: 100%
  INSECT ACTIVIIS 0-4: 0 0-4
[3]
  TUNNEL LENGTH: 4 CM

## CNC(=O)c1cc(C#N)cc(C)c1NC(=O)c1cc(Br)nn1-c1ncccc1Cl [Cyantraniliprole]
[2]; 5 ppmai on ground Sabal palm, 5 DA-A
  % MORT: 0.5%
[2]; 5 ppmai on ground Sabal palm, 11 DA-A
  % MORT: 1.2%
[2]; 5 ppmai on ground Sabal palm, 19 DA-A
  % MORT: 1.2%
[2]; 5 ppmai on ground Sabal palm, 37 DA-A
  % MORT: 1.2%
[2]; 50 ppmai on ground Sabal palm, 5 DA-A
  % MORT: 3.9%
[2]; 50 ppmai on ground Sabal palm, 11 DA-A
  % MORT: 100%
[2]; 50 ppmai on ground Sabal palm, 19 DA-A
  % MORT: 100%
[2]; 50 ppmai on ground Sabal palm, 37 DA-A
  % MORT: 100%
[2]; 100 ppmai on ground Sabal palm, 5 DA-A
  % MORT: 49.3%
[2]; 100 ppmai on ground Sabal palm, 11 DA-A
  % MORT: 100%
[2]; 100 ppmai on ground Sabal palm, 19 DA-A
  % MORT: 100%
[2]; 100 ppmai on ground Sabal palm, 37 DA-A
  % MORT: 100%
[2]; 200 ppmai on ground Sabal palm, 5 DA-A
  % MORT: 80.1%
[2]; 200 ppmai on ground Sabal palm, 11 DA-A
  % MORT: 100%
[2]; 200 ppmai on ground Sabal palm, 19 DA-A
  % MORT: 100%
[2]; 200 ppmai on ground Sabal palm, 37 DA-A
  % MORT: 100%

## COC(=O)N(C(=O)N1CO[C@@]2(C(=O)OC)Cc3cc(Cl)ccc3C2=N1)c1ccc(OC(F)(F)F)cc1 [Indoxacarb]
[1]; 7.5 ppmai on ground Sabal palm, 3 DA-A
  % MORT: 9.66%
[1]; [4]
  % MORT: 56.71%
[1]; 7.5 ppmai on ground Sabal palm, 10 DA-A
  % MORT: 99.79%
[1]; 75 ppmai on ground Sabal palm, 3 DA-A
  % MORT: 16.59%
[1]; [5]
  % MORT: 87.91%
[1]; 75 ppmai on ground Sabal palm, 10 DA-A
  % MORT: 100%
[1]; 150 ppmai on ground Sabal palm, 3 DA-A
  % MORT: 22.94%
[1]; [6]
  % MORT: 87.84%
[1]; 150 ppmai on ground Sabal palm, 10 DA-A
  % MORT: 100%
[1]; 300 ppmai on ground Sabal palm, 3 DA-A
  % MORT: 47.09%
[1]; [7]
  % MORT: 98.42%
[1]; 300 ppmai on ground Sabal palm, 10 DA-A
  % MORT: 100%
[2]; [4]
  % MORT: 0%
[2]; 7.5 ppmai on ground Sabal palm, 7 DA-A
  % MORT: 0%
[2]; 7.5 ppmai on ground Sabal palm, 12 DA-A
  % MORT: 0%
[2]; 7.5 ppmai on ground Sabal palm, 20 DA-A
  % MORT: 2.5%
[2]; 7.5 ppmai on ground Sabal palm, 28 DA-A
  % MORT: 5%
[2]; 7.5 ppmai on ground Sabal palm, 42 DA-A
  % MORT: 90%
[2]; [5]
  % MORT: 0.013%
[2]; 75 ppmai on ground Sabal palm, 7 DA-A
  % MORT: 0.038%
[2]; 75 ppmai on ground Sabal palm, 12 DA-A
  % MORT: 11.68%
[2]; 75 ppmai on ground Sabal palm, 20 DA-A
  % MORT: 35%
[2]; 75 ppmai on ground Sabal palm, 28 DA-A
  % MORT: 93.8%
[2]; 75 ppmai on ground Sabal palm, 42 DA-A
  % MORT: 100%
[2]; [6]
  % MORT: 0%
[2]; 150 ppmai on ground Sabal palm, 7 DA-A
  % MORT: 0.013%
[2]; 150 ppmai on ground Sabal palm, 12 DA-A
  % MORT: 17.48%
[2]; 150 ppmai on ground Sabal palm, 20 DA-A
  % MORT: 37.5%
[2]; 150 ppmai on ground Sabal palm, 28 DA-A
  % MORT: 98.8%
[2]; 150 ppmai on ground Sabal palm, 42 DA-A
  % MORT: 100%
[2]; [7]
  % MORT: 0%
[2]; 300 ppmai on ground Sabal palm, 7 DA-A
  % MORT: 0%
[2]; 300 ppmai on ground Sabal palm, 12 DA-A
  % MORT: 17.5%
[2]; 300 ppmai on ground Sabal palm, 20 DA-A
  % MORT: 93.8%
[2]; 300 ppmai on ground Sabal palm, 28 DA-A
  % MORT: 100%
[2]; 300 ppmai on ground Sabal palm, 42 DA-A
  % MORT: 100%

## O=C(NC(=O)c1c(F)cccc1F)Nc1cc(Cl)c(OC(F)(F)C(F)C(F)(F)F)cc1Cl (stereo not shown) [Lufenuron]
[1]; 4 DA-A
  % Mortality: 11.25%
[1]; 7 DA-A
  % Mortality: 50%
[1]; 11 DA-A
  % Mortality: 51.25%
[1]; 18 DA-A
  % Mortality: 51.25%
[1]; 25 DA-A
  % Mortality: 51.88%
[1]; 32 DA-A
  % Mortality: 68.75%
[1]; 41 DA-A
  % Mortality: 70.63%
[1]; 53 DA-A
  % Mortality: 86.25%
[1]; 63 DA-A
  % Mortality: 96.25%
[2]; 4 DA-A
  % Mortality: 4.38%
[2]; 7 DA-A
  % Mortality: 7.5%
[2]; 11 DA-A
  % Mortality: 14.38%
[2]; 18 DA-A
  % Mortality: 21.25%
[2]; 25 DA-A
  % Mortality: 45%
[2]; 32 DA-A
  % Mortality: 93.8%
[2]; 41 DA-A
  % Mortality: 100%
